Like-named read-outs stand apart in the source and are kept apart here.
Experiments:
[1] = system: Herpes simplex virus (HSV) of type 1, US strain; assay: Herpetic infection model in irradiated mice, survival after immunization; type: in vivo, outbred mice; conditions: for Number of dead animals, % / Number of survived animals, %: 2.5 LD50 s.c.
[2] = system: virus of Venezuelan equine encephalomyelitis, strain Trinidad; parameters: species or system outbred male mice; conditions: mouse, in vivo
[3] = system: Cowpox virus (CP), Pumenok strain; parameters: species or system outbred male mice; conditions: mouse, in vivo
[4] = system: botulinum toxin of type A; parameters: species or system white mice; conditions: mouse, in vivo
[5] = system: botulinum toxin of type A; parameters: species or system guinea pigs; conditions: guinea pig, in vivo
[6] = system: antigens of the VVE virus; parameters: species or system white outbred male mice; conditions: mouse, in vivo
[7] = system: smallpox antigens; parameters: species or system white outbred male mice; conditions: mouse, in vivo
[8] = adjuvant 150 μg/individual i.m. 3, 2, 1 days before

Structure (SMILES): Nc1cccc2c([O-])nnc([O-])c12.[Na+].[Na+] [Abidov's adjuvant, sodium salt of 5-amino-1,2,3,4-tetrahydrophthalazine-1,4-dione]
- Number of dead animals, % [1, 8]: 70%
- Number of survived animals, % [1, 8]: 30%
- Number of dead animals, % ([1]; only adjuvant, single dose): 80%
- Number of survived animals, % ([1]; only adjuvant, single dose): 20%
- increase of the effectiveness of IMP ([1]; adjuvant used in immunization schemes with herpetic vaccine): 30%
- survival rate of infected mice [2]: 60-100%
- adjuvant effect in relation to SLDV [3]: not possible to identify a pronounced adjuvant effect
- effect on the formation of specific orthopoxvirus immunity [3]: no negative effect
- Survival rate, M (M − tm − M + tm), % [4]: 0%
- Survival rate, M (M − tm − M + tm), % [5]: 0%
- increase in the level of positive seroconversions compared with animals vaccinated only with VVE [6]: 30%
- increase in the titer of specific anti-smallpox antibodies compared with animals vaccinated with only SLDV [7]: 4 times

From US20230293677A1 (priority 2020, published 2023)
